Assay results as given in BindingDB's records for PubMed 35189320 (Dr.Vishwanath Karad MIT World Peace University, 2022).
pIC50: −log10 of the molar value.

Target: Sterol O-acyltransferase 1 (Homo sapiens) (UniProt P35610)
Assay: Inhibition of human ACAT1 in HepG2 cells assessed as inhibition of […] synthesis incubated for 1 hrs followed by 13C-addition of 13C-oleic acid pre-complexed with fatty acid free BSA for 6 hrs by LC/MS/MS analysis

Sterol O-acyltransferase 1 (Homo sapiens), sequence (P35610 whole entry, looked up): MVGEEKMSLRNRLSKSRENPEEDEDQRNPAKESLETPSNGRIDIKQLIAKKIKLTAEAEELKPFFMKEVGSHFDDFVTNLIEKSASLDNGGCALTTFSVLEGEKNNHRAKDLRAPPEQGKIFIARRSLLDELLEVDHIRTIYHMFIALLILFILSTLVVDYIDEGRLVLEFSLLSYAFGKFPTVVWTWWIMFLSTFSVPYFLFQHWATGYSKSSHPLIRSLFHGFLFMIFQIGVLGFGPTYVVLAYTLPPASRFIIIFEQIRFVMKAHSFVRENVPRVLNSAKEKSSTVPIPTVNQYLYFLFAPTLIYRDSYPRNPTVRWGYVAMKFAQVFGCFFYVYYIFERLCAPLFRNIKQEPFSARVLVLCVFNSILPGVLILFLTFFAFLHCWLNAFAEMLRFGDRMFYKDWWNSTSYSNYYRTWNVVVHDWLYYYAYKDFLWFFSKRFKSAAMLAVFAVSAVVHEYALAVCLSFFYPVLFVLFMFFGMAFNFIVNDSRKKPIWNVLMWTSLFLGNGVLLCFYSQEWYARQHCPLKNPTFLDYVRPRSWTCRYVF

Row | pIC50 | Structure (SMILES)
1 | 7.35 | O=C(O)CC1CCC2(CC1)CCN(c1ccc(NC(=O)c3nnc(Nc4ccc(F)c(F)c4)o3)cn1)CC2
2 | 5.60 | O=C(Nc1ccc(N2CCC3(CC2)CC(C(=O)O)C3)nc1)c1nnc(Nc2ccc(F)c(F)c2)o1
